# Measurements from the supplement of paper PMC10307832.
# What was measured:
# Assay in all cases: relative viability (nuclei count vs DMSO), 5 days (fraction); higher = more cells survive
# NCI-H3122 = system: NCI-H3122
# Outline: (§1)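 Relative viability is defined as nuclei in treated wells over nuclei in vehicle wells. Duplicate plates were run and medians reported. Lung cancer cell lines in 1536-well plates were dosed by pin tool one day after seeding, with one drug or with a fixed anchor-drug dose plus five library-drug doses (not always all listed) in √10 steps, and nuclei were counted after 5 days.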
# NCI-H661 = system: NCI-H661
# Outline: as §1
# ChaGo-K-1 = system: ChaGo-K-1
# Outline: as §1
# H3255 = system: H3255
# Outline: as §1
# NCI-H2228 = system: NCI-H2228
# Outline: as §1
# NCI-H2126 = system: NCI-H2126
# Outline: as §1
# SW 900 = system: SW 900
# Outline: as §1
# SK-LU-1 = system: SK-LU-1
# Outline: as §1
# NCI-H650 = system: NCI-H650
# Outline: as §1
# EKVX = system: EKVX
# Outline: as §1
# NCI-H23 = system: NCI-H23
# Outline: as §1
# NCI-H596 = system: NCI-H596
# Outline: as §1
# HCC-827 = system: HCC-827
# Outline: as §1
# NCI-H2405 = system: NCI-H2405
# Outline: as §1
# LCLC-103H = system: LCLC-103H
# Outline: as §1
# LOU-NH91 = system: LOU-NH91
# Outline: as §1
# COR-L 105 = system: COR-L 105
# Outline: as §1
# NCI-H727 = system: NCI-H727
# Outline: as §1
# PC-3 [JPC-3] = system: PC-3 [JPC-3]
# Outline: as §1
# 201T = system: 201T
# Outline: as §1
# NCI-H1975 = system: NCI-H1975
# Outline: as §1
# HOP-62 = system: HOP-62
# Outline: as §1
# HARA = system: HARA
# Outline: as §1
compound,measurement,setting,value
CCNC(=O)c1noc(-c2cc(C(C)C)c(O)cc2O)c1-c1ccc(CN2CCOCC2)cc1 [Luminespib] + COc1cccc2cc(-c3nc([C@H]4CC[C@H](C(=O)O)CC4)n4ncnc(N)c34)[nH]c12 [OSI-027] (partner 0.5 µM),relative viability,NCI-H3122; first compound 0.002 µM,1.01
same,relative viability,NCI-H3122; first compound 0.006325 µM,0.787
same,relative viability,NCI-H3122; first compound 0.02 µM,0.142
same,relative viability,NCI-H3122; first compound 0.06325 µM,0.114
same,relative viability,NCI-H3122; first compound 0.2 µM,0.105
same,relative viability,NCI-H661; first compound 0.002 µM,0.802
same,relative viability,NCI-H661; first compound 0.006325 µM,0.672
same,relative viability,NCI-H661; first compound 0.02 µM,0.58
same,relative viability,NCI-H661; first compound 0.06325 µM,0.199
same,relative viability,NCI-H661; first compound 0.2 µM,0.226
same,relative viability,ChaGo-K-1; first compound 0.002 µM,0.562
same,relative viability,ChaGo-K-1; first compound 0.006325 µM,0.612
same,relative viability,ChaGo-K-1; first compound 0.02 µM,0.525
same,relative viability,ChaGo-K-1; first compound 0.06325 µM,0.199
same,relative viability,ChaGo-K-1; first compound 0.2 µM,0.161
same,relative viability,H3255; first compound 0.002 µM,0.596
same,relative viability,H3255; first compound 0.006325 µM,0.628
same,relative viability,H3255; first compound 0.06325 µM,0.577
same,relative viability,H3255; first compound 0.2 µM,0.249
same,relative viability,NCI-H2228; first compound 0.002 µM,0.576
same,relative viability,NCI-H2228; first compound 0.006325 µM,0.459
same,relative viability,NCI-H2228; first compound 0.02 µM,0.116
same,relative viability,NCI-H2228; first compound 0.06325 µM,0.109
same,relative viability,NCI-H2228; first compound 0.2 µM,0.0698
same,relative viability,NCI-H2126; first compound 0.002 µM,0.72
same,relative viability,NCI-H2126; first compound 0.006325 µM,0.651
same,relative viability,NCI-H2126; first compound 0.02 µM,0.533
same,relative viability,NCI-H2126; first compound 0.06325 µM,0.226
same,relative viability,NCI-H2126; first compound 0.2 µM,0.223
same,relative viability,SW 900; first compound 0.002 µM,0.502
same,relative viability,SW 900; first compound 0.006325 µM,0.471
same,relative viability,SW 900; first compound 0.02 µM,0.131
same,relative viability,SW 900; first compound 0.06325 µM,0.0999
same,relative viability,SW 900; first compound 0.2 µM,0.0789
same,relative viability,SK-LU-1; first compound 0.002 µM,0.356
same,relative viability,SK-LU-1; first compound 0.006325 µM,0.201
same,relative viability,SK-LU-1; first compound 0.02 µM,0.136
same,relative viability,SK-LU-1; first compound 0.06325 µM,0.0733
same,relative viability,SK-LU-1; first compound 0.2 µM,0.0594
same,relative viability,NCI-H650; first compound 0.002 µM,0.477
same,relative viability,NCI-H650; first compound 0.006325 µM,0.545
same,relative viability,NCI-H650; first compound 0.02 µM,0.378
same,relative viability,NCI-H650; first compound 0.06325 µM,0.368
same,relative viability,NCI-H650; first compound 0.2 µM,0.109
same,relative viability,EKVX; first compound 0.002 µM,0.631
same,relative viability,EKVX; first compound 0.006325 µM,0.684
same,relative viability,EKVX; first compound 0.06325 µM,0.658
same,relative viability,EKVX; first compound 0.2 µM,0.143
same,relative viability,NCI-H23; first compound 0.002 µM,0.503
same,relative viability,NCI-H23; first compound 0.006325 µM,0.508
same,relative viability,NCI-H23; first compound 0.02 µM,0.322
same,relative viability,NCI-H23; first compound 0.06325 µM,0.133
same,relative viability,NCI-H23; first compound 0.2 µM,0.136
same,relative viability,NCI-H596; first compound 0.002 µM,0.797
same,relative viability,NCI-H596; first compound 0.006325 µM,0.788
same,relative viability,NCI-H596; first compound 0.02 µM,0.415
same,relative viability,NCI-H596; first compound 0.06325 µM,0.642
same,relative viability,NCI-H596; first compound 0.2 µM,0.377
same,relative viability,HCC-827; first compound 0.002 µM,0.795
same,relative viability,HCC-827; first compound 0.006325 µM,0.725
same,relative viability,HCC-827; first compound 0.02 µM,0.543
same,relative viability,HCC-827; first compound 0.06325 µM,0.354
same,relative viability,HCC-827; first compound 0.2 µM,0.126
same,relative viability,NCI-H2405; first compound 0.002 µM,0.648
same,relative viability,NCI-H2405; first compound 0.006325 µM,0.545
same,relative viability,NCI-H2405; first compound 0.02 µM,0.532
same,relative viability,NCI-H2405; first compound 0.06325 µM,0.196
same,relative viability,NCI-H2405; first compound 0.2 µM,0.192
same,relative viability,LCLC-103H; first compound 0.002 µM,0.457
same,relative viability,LCLC-103H; first compound 0.006325 µM,0.471
same,relative viability,LCLC-103H; first compound 0.02 µM,0.35
same,relative viability,LCLC-103H; first compound 0.06325 µM,0.503
same,relative viability,LCLC-103H; first compound 0.2 µM,0.383
same,relative viability,LOU-NH91; first compound 0.002 µM,0.684
same,relative viability,LOU-NH91; first compound 0.006325 µM,0.74
same,relative viability,LOU-NH91; first compound 0.02 µM,0.492
same,relative viability,LOU-NH91; first compound 0.06325 µM,0.319
same,relative viability,LOU-NH91; first compound 0.2 µM,0.295
same,relative viability,COR-L 105; first compound 0.002 µM,0.775
same,relative viability,COR-L 105; first compound 0.006325 µM,0.619
same,relative viability,COR-L 105; first compound 0.02 µM,0.331
same,relative viability,COR-L 105; first compound 0.06325 µM,0.162
same,relative viability,COR-L 105; first compound 0.2 µM,0.176
same,relative viability,NCI-H727; first compound 0.002 µM,0.72
same,relative viability,NCI-H727; first compound 0.006325 µM,0.549
same,relative viability,NCI-H727; first compound 0.02 µM,0.463
same,relative viability,NCI-H727; first compound 0.06325 µM,0.33
same,relative viability,NCI-H727; first compound 0.2 µM,0.23
same,relative viability,PC-3 [JPC-3]; first compound 0.002 µM,0.813
same,relative viability,PC-3 [JPC-3]; first compound 0.006325 µM,0.718
same,relative viability,PC-3 [JPC-3]; first compound 0.02 µM,0.583
same,relative viability,PC-3 [JPC-3]; first compound 0.06325 µM,0.58
same,relative viability,PC-3 [JPC-3]; first compound 0.2 µM,0.225
same,relative viability,201T; first compound 0.002 µM,0.756
same,relative viability,201T; first compound 0.02 µM,0.668
same,relative viability,201T; first compound 0.06325 µM,0.492
same,relative viability,201T; first compound 0.2 µM,0.159
same,relative viability,NCI-H1975; first compound 0.002 µM,0.746
same,relative viability,NCI-H1975; first compound 0.006325 µM,0.677
same,relative viability,NCI-H1975; first compound 0.02 µM,0.187
same,relative viability,NCI-H1975; first compound 0.06325 µM,0.0795
same,relative viability,NCI-H1975; first compound 0.2 µM,0.0958
same,relative viability,HOP-62; first compound 0.002 µM,0.83
same,relative viability,HOP-62; first compound 0.006325 µM,0.758
same,relative viability,HOP-62; first compound 0.02 µM,0.648
same,relative viability,HOP-62; first compound 0.06325 µM,0.428
same,relative viability,HOP-62; first compound 0.2 µM,0.111
same,relative viability,HARA; first compound 0.002 µM,0.511
same,relative viability,HARA; first compound 0.006325 µM,0.281
same,relative viability,HARA; first compound 0.02 µM,0.381
same,relative viability,HARA; first compound 0.06325 µM,0.0542
same,relative viability,HARA; first compound 0.2 µM,0.0658
